Experimental data reported in patent publication US11040952B2, “Phthalazinone compound, method for preparation thereof, pharmaceutical composition thereof, and use thereof” (SHANGHAI INSTITUTE OF MATERIA MEDICA, CHINESE ACADEMY OF …, priority 2017, dated 2021).

How the values were obtained:
HBV = HBV DNA content in the supernatant of cell culture (real-time PCR); type: cell-based, hepatitis B virus (HBV); conditions: Hepatitis B virus, HepG2.2.15, 192 h, inhibition of HBV DNA replication, HepG2.2.15 supernatant, 8 days
Method: (§1) Human hepatoblastoma cell line HepG2.2.15 stably transfected with full-length HBV (provided by Shanghai Institute of Materia Medica, Chinese Academy of Sciences)
(§2) HepG2.2.15 cells were cultured and passaged according to conventional methods. DMEM containing 10% (v/v) bovine serum and the selective antibiotic G418 was used as a medium, the cells were cultured in an incubator at 37° C. under 5% CO2 for 8 days (the medium was exchanged on the 4th day).
(§3) The test compounds were formulated with DMSO into a 40 mM stock solution, which was then prepared into a solution at the defined highest concentration using a DMEM medium containing 10% Hyclone™ Fetal Bovine Serum, followed by diluting the same; the positive drug was lamivudine, which was also prepared into a solution at the defined concentration with the DMEM medium containing 10% Hyclone™ Fetal Bovine Serum.
HepG2.2.15 cells were treated with compounds at different concentrations for 8 days (the medium was exchanged on the 4th day), and the supernatant was aspirated, and the HBV DNA contained in the mature virus particles in the supernatant was quantitated by using a real-time PCR method.
1) The supernatant DNA from a 96-well plate, 200 μl/well, was collected, wherein the contents in the duplicate wells were collected into a same EP tube, and centrifuged at 4000 rcf for 5 min, and the supernatant was collected;
2) 200 μl of the supernatant was added into a 1.5 ml EP tube, added with 20 μl of proteinase K and 200 μl of Buffer AL (Qiagen, DNeasy® Blood & Tissue Kit), vortexed to be mixed thoroughly, and incubated at 56° C. for 10 min;
3) 200 μl of ethanol was added and vortexed to be mixed thoroughly;
4) all the liquid obtained from step 3) was added into a DNeasy Mini spin column (Qiagen, DNeasy® Blood & Tissue Kit) placed in a 2 ml waste liquid collection tube, and centrifuged at 6000 rcf for 1 min, and the supernatant was discarded;
5) the DNeasy Mini spin column was placed in a new 2 ml waste liquid collection tube, added with 500 μl of Buffer AW1 (Qiagen, DNeasy® Blood & Tissue Kit), and centrifuged at 6000 rcf for 1 min, and the supernatant was discarded;
6) the DNeasy Mini spin column was placed in a new 2 ml waste liquid collection tube, added with 500 μl of Buffer AW2, (Qiagen, DNeasy® Blood & Tissue Kit), and centrifuged at 20000 rcf for 3 min, and the supernatant was discarded;
7) the DNeasy Mini spin column was placed in anew 1.5 ml EP tube, 50 μl of Buffer AE (Qiagen, DNeasy® Blood & Tissue Kit) was pipetted and directly applied onto the membrane of the DNeasy Mini spin column, which was then left at room temperature for 5 min, and centrifuged at 6000 rcf for 1 min to elute the DNA from the membrane, the DNeasy Mini spin column was discarded, and the DNA sample was collected and stored at −20° C.
1) Standard curve: 1e^7-1e^4 IU/ml, the sample amount was 1 μl, a blank well was set so as to check whether the reaction system is polluted or not;
2) 1 μl of a DNA sample was added in sequence;
3) Addition of enzyme and reaction buffer: two tubes of the reaction solution were first added into the enzyme, mixed well and centrifuged slightly, placed on ice, added with the sample, followed by addition of 19 μl of the enzyme reaction solution, wherein, during the addition, the DNA sample should be sure of not being touched to cause contamination;
4) the sample was sealed with a sealing film and centrifuged;
Stage 2: 10 cycles • Step 1: 93° C., 45 s • Step 2: 55° C., 1 min Stage 3: 45 cycles • Step 1: 93° C., 30 s • Step 2: 55° C., 45 s
Detection: data were collected after completing the step 2 (55° C., 45 s) of the stage 3.
The experimental data were processed by using the Origin software and IC50 was calculated.

[1] = MTT assay for cytotoxicity; type: cell-based, Human; conditions: human, HepG2.2.15 cells, half (50%) lethal concentration
Method: as §1, §2, §3
HepG2.2.15 cells were seeded at 5×10^3 cells/well in a 96-well plate, and cultured for eight days in the presence of the compounds according to the above method, and then 200 μl of the supernatant was taken out, followed by addition of the MTT solution. After 4 hours of culture, a lysate was added. After 12 hours of culture, the OD570 was measured on a microplate reader. By comparing with the absorbance of the control well, the percentage of viable cells was calculated, and CC50, the concentration required for the reduction of cell viability by 50%, was calculated.

COc1cc2c(-c3ccc(C)nc3F)nn(Cc3ccc(C#N)cc3)c(=O)c2cc1OC [Compound V-12]
IC50 (HBV): 4.5 µM
CC50 at 8 days [1]: > 100 µM

Nc1ncc(-c2nn(Cc3ccc(Cl)cc3)c(=O)c3ccccc23)cn1 [II-1]
IC50 (HBV): 3.8 µM
CC50 at 8 days [1]: 41.5 µM

N#Cc1ncc(-c2nn(Cc3ccc(Cl)cc3)c(=O)c3ccccc23)cn1 [II-2]
IC50 (HBV): 4.5 µM
CC50 at 8 days [1]: 32.4 µM

COc1ncc(-c2nn(Cc3ccc(Cl)cc3)c(=O)c3ccccc23)cn1 [II-3]
IC50 (HBV): 8.8 µM
CC50 at 8 days [1]: > 100 µM

Cc1ncc(-c2nn(Cc3ccc(Cl)cc3)c(=O)c3ccccc23)cn1 [II-4]
IC50 (HBV): 7.1 µM
CC50 at 8 days [1]: 97.6 µM

Cc1cnc(-c2nn(Cc3ccc(Cl)cc3)c(=O)c3ccccc23)cn1 [III-1]
IC50 (HBV): 6.2 µM
CC50 at 8 days [1]: 87.8 µM

N#Cc1ccc(Cn2nc(-c3cccnc3)c3ccccc3c2=O)cc1 [IV-1]
IC50 (HBV): 5.4 µM
CC50 at 8 days [1]: > 100 µM

N#Cc1ccc(Cn2nc(-c3cccnc3F)c3ccccc3c2=O)cc1 [IV-2]
IC50 (HBV): 1.18 µM
CC50 at 8 days [1]: > 100 µM

Cc1ncccc1-c1nn(Cc2ccc(C#N)cc2)c(=O)c2ccccc12 [IV-3]
IC50 (HBV): 5.5 µM
CC50 at 8 days [1]: > 100 µM

N#Cc1ccc(Cn2nc(-c3cccnc3C#N)c3ccccc3c2=O)cc1 [IV-4]
IC50 (HBV): 3.3 µM
CC50 at 8 days [1]: > 100 µM

Cc1ccc(-c2nn(Cc3ccc(C#N)cc3)c(=O)c3ccccc23)c(F)n1 [IV-6]
IC50 (HBV): 0.8 µM
CC50 at 8 days [1]: > 100 µM

N#Cc1ccc(Cn2nc(-c3ccc(N)nc3C#N)c3ccccc3c2=O)cc1 [IV-7]
IC50 (HBV): 0.8 µM
CC50 at 8 days [1]: > 100 µM

CNc1ccc(-c2nn(Cc3ccc(C#N)cc3)c(=O)c3ccccc23)c(F)n1 [IV-8]
IC50 (HBV): 0.9 µM
CC50 at 8 days [1]: > 100 µM

CN(C)c1ccc(-c2nn(Cc3ccc(C#N)cc3)c(=O)c3ccccc23)c(F)n1 [IV-9]
IC50 (HBV): 1.3 µM
CC50 at 8 days [1]: > 100 µM

CC(=O)Nc1ccc(-c2nn(Cc3ccc(C#N)cc3)c(=O)c3ccccc23)c(F)n1 [IV-10]
IC50 (HBV): 1.7 µM
CC50 at 8 days [1]: 47.9 µM

N#Cc1ccc(Cn2nc(-c3ccc(N4CCC4)nc3F)c3ccccc3c2=O)cc1 [IV-11]
IC50 (HBV): 0.4 µM
CC50 at 8 days [1]: 98.5 µM

CC(C)(C)Nc1ccc(-c2nn(Cc3ccc(C#N)cc3)c(=O)c3ccccc23)c(F)n1 [IV-12]
IC50 (HBV): 3.7 µM
CC50 at 8 days [1]: 46.3 µM

N#Cc1ccc(Cn2nc(-c3ccc(NC4CC4)nc3F)c3ccccc3c2=O)cc1 [IV-13]
IC50 (HBV): 3.8 µM
CC50 at 8 days [1]: 78.5 µM

CN(C)CCNc1ccc(-c2nn(Cc3ccc(C#N)cc3)c(=O)c3ccccc23)c(F)n1 [IV-14]
IC50 (HBV): 1.5 µM
CC50 at 8 days [1]: > 100 µM

N#Cc1ccc(Cn2nc(-c3ccc(NC4COC4)nc3F)c3ccccc3c2=O)cc1 [IV-16]
IC50 (HBV): 1 µM
CC50 at 8 days [1]: 88.3 µM

[2H]C(c1ccc(C#N)cc1)n1nc(-c2ccc(F)nc2F)c2ccccc2c1=O (stereo not shown) [IV-17]
IC50 (HBV): 0.13 µM
CC50 at 8 days [1]: > 100 µM

[2H]C([2H])(c1ccc(C#N)cc1)n1nc(-c2ccc(F)nc2F)c2ccccc2c1=O [IV-18]
IC50 (HBV): 0.21 µM
CC50 at 8 days [1]: > 100 µM

N#Cc1ccc(Cn2nc(-c3ccc(C4CC4)nc3F)c3ccccc3c2=O)cc1 [IV-19]
IC50 (HBV): 0.27 µM
CC50 at 8 days [1]: > 100 µM

N#Cc1ccc(Cn2nc(-c3ccc(CO)nc3F)c3ccccc3c2=O)cc1 [IV-20]
IC50 (HBV): 0.3 µM
CC50 at 8 days [1]: > 100 µM

CN(C)Cc1ccc(-c2nn(Cc3ccc(C#N)cc3)c(=O)c3ccccc23)c(F)n1 [IV-21]
IC50 (HBV): 1.3 µM
CC50 at 8 days [1]: > 100 µM

COCc1ccc(-c2nn(Cc3ccc(C#N)cc3)c(=O)c3ccccc23)c(F)n1 [IV-22]
IC50 (HBV): 3.5 µM
CC50 at 8 days [1]: > 100 µM

CC(=O)OCc1ccc(-c2nn(Cc3ccc(C#N)cc3)c(=O)c3ccccc23)c(F)n1 [IV-23]
IC50 (HBV): 4.5 µM
CC50 at 8 days [1]: > 100 µM

N#Cc1ccc(Cn2nc(-c3ccc(CN4CCOCC4)nc3F)c3ccccc3c2=O)cc1 [IV-24]
IC50 (HBV): 0.35 µM
CC50 at 8 days [1]: > 100 µM

N#Cc1ccc(Cn2nc(-c3ccc(NCC4CCOCC4)nc3F)c3ccccc3c2=O)cc1 [IV-25]
IC50 (HBV): 1.2 µM
CC50 at 8 days [1]: 54.1 µM

COCCNc1ccc(-c2nn(Cc3ccc(C#N)cc3)c(=O)c3ccccc23)c(F)n1 [IV-26]
IC50 (HBV): 0.43 µM
CC50 at 8 days [1]: > 100 µM

COCCNc1nc(F)c(-c2nn(Cc3ccc(C#N)cc3)c(=O)c3ccccc23)cc1Cl [IV-27]
IC50 (HBV): 0.0142 µM
CC50 at 8 days [1]: > 100 µM

COCCNc1ccc(-c2nn(Cc3ccc(Cl)cc3)c(=O)c3ccccc23)c(F)n1 [IV-28]
IC50 (HBV): 0.191 µM
CC50 at 8 days [1]: 21.3 µM

COCCNc1nc(F)c(-c2nn(Cc3ccc(Cl)cc3)c(=O)c3ccccc23)cc1Cl [IV-29]
IC50 (HBV): 0.0439 µM
CC50 at 8 days [1]: 26.6 µM

N#Cc1ccc(Cn2nc(-c3cc(Cl)c(N)nc3F)c3ccccc3c2=O)cc1 [IV-30]
IC50 (HBV): < 0.0977 µM
CC50 at 8 days [1]: 10.2 µM

COCCOc1ccc(-c2nn(Cc3ccc(C#N)cc3)c(=O)c3ccccc23)c(F)n1 [IV-31]
IC50 (HBV): 0.452 µM
CC50 at 8 days [1]: 109 µM

COCCCNc1ccc(-c2nn(Cc3ccc(C#N)cc3)c(=O)c3ccccc23)c(F)n1 [IV-32]
IC50 (HBV): 0.191 µM
CC50 at 8 days [1]: 43.7 µM

COCCCNc1nc(F)c(-c2nn(Cc3ccc(C#N)cc3)c(=O)c3ccccc23)cc1Cl [IV-33]
IC50 (HBV): < 0.0977 µM
CC50 at 8 days [1]: 181 µM

CCOC(=O)CNc1ccc(-c2nn(Cc3ccc(C#N)cc3)c(=O)c3ccccc23)c(F)n1 [IV-34]
IC50 (HBV): 15.7 µM
CC50 at 8 days [1]: > 100 µM

CCOC(=O)CCCNc1ccc(-c2nn(Cc3ccc(C#N)cc3)c(=O)c3ccccc23)c(F)n1 [IV-35]
IC50 (HBV): 1.23 µM
CC50 at 8 days [1]: > 100 µM

CCOC(=O)CCCNc1nc(F)c(-c2nn(Cc3ccc(C#N)cc3)c(=O)c3ccccc23)cc1Cl [IV-36]
IC50 (HBV): 0.482 µM
CC50 at 8 days [1]: > 100 µM

CN(C)CCNc1nc(F)c(-c2nn(Cc3ccc(C#N)cc3)c(=O)c3ccccc23)cc1Cl [IV-38]
IC50 (HBV): 0.343 µM
CC50 at 8 days [1]: 9.76 µM

CN(C)CCCNc1ccc(-c2nn(Cc3ccc(C#N)cc3)c(=O)c3ccccc23)c(F)n1 [IV-39]
IC50 (HBV): 0.684 µM
CC50 at 8 days [1]: 18.4 µM

CN(C)CCCCNc1ccc(-c2nn(Cc3ccc(C#N)cc3)c(=O)c3ccccc23)c(F)n1 [IV-40]
IC50 (HBV): 0.66 µM
CC50 at 8 days [1]: 18.6 µM

CCOCCNc1ccc(-c2nn(Cc3ccc(C#N)cc3)c(=O)c3ccccc23)c(F)n1 [IV-41]
IC50 (HBV): 0.325 µM
CC50 at 8 days [1]: > 100 µM

CCOCCNc1nc(F)c(-c2nn(Cc3ccc(C#N)cc3)c(=O)c3ccccc23)cc1Cl [IV-42]
IC50 (HBV): 0.292 µM
CC50 at 8 days [1]: 29.8 µM

CCOCCCNc1ccc(-c2nn(Cc3ccc(C#N)cc3)c(=O)c3ccccc23)c(F)n1 [IV-43]
IC50 (HBV): 0.288 µM
CC50 at 8 days [1]: 89.8 µM

CCOCCCNc1nc(F)c(-c2nn(Cc3ccc(C#N)cc3)c(=O)c3ccccc23)cc1Cl [IV-44]
IC50 (HBV): < 0.0977 µM
CC50 at 8 days [1]: 54.8 µM

CC(C)(C)OC(=O)NCCCCNc1ccc(-c2nn(Cc3ccc(C#N)cc3)c(=O)c3ccccc23)c(F)n1 [IV-45]
IC50 (HBV): 0.368 µM
CC50 at 8 days [1]: > 100 µM

CC(C)(C)OC(=O)NCCCCNc1nc(F)c(-c2nn(Cc3ccc(C#N)cc3)c(=O)c3ccccc23)cc1Cl [IV-46]
IC50 (HBV): 0.014 µM
CC50 at 8 days [1]: > 100 µM

CCNCCNc1ccc(-c2nn(Cc3ccc(C#N)cc3)c(=O)c3ccccc23)c(F)n1 [IV-47]
IC50 (HBV): 1.72 µM
CC50 at 8 days [1]: 13 µM
